The target of this assay is T1, SIRT1 (Homo sapiens, UniProt Q96EB6).
T1 sequence (Q96EB6 1-747): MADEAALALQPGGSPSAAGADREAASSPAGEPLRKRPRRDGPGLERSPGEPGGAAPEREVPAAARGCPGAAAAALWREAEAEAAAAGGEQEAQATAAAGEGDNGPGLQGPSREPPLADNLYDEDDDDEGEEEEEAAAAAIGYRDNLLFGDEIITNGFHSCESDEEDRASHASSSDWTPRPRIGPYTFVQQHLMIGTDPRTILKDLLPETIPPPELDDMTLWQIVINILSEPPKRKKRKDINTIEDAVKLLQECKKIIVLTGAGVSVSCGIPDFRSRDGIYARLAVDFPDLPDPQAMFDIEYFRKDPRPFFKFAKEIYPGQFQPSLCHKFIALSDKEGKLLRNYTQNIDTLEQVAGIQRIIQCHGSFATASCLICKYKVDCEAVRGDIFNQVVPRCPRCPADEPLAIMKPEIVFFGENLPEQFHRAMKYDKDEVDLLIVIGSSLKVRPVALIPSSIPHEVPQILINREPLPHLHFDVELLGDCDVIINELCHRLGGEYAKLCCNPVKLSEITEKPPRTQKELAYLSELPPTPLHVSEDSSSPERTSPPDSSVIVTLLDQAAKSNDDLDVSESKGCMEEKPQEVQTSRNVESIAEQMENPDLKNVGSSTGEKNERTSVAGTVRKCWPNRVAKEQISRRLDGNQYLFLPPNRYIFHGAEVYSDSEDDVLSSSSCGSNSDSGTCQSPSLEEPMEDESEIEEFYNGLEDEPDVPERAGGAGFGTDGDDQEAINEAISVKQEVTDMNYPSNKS
The experiment in a line: Trp mass spectrometry assay of SIRT1 activation (Ac-R-H-K-K(Ac)-W-NH2 peptide). The class given is biochemical. The settings on record: for Emax: 25 min, read-out: TRP MAX RESP (percent maximum fold activation). Put shortly: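 N-terminal His-tagged human SIRT1, expressed in BL21(DE3) and purified, was incubated 25 min with an acetylated Trp peptide and NAD plus test compound at varying concentrations, then quenched with formic acid. OAADPR or deacetylated peptide was quantified by mass spectrometry versus compound-free control; EC1.5 is the concentration giving 50% activity increase, with percent maximum activation.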

[1] abbreviates: Trp peptide 0.5 μM, 120 μM βNAD+, 10 nM SIRT1, 25 min at 25° C., relative to control (100%).
Setting [2] is: Trp peptide 0.5 μM, 120 μM βNAD+, 10 nM SIRT1, 25 min at 25° C.

Results on 21 molecules are retold here after US10072011B2, “Substituted bridged urea analogs as sirtuin modulators” (GlaxoSmithKline Intellectual Property (No.2) Limited, priority 2014, dated 2018).

SMILES strings stand for the structures. Like-named read-outs stand apart in the source and are kept apart here.

For `COCC(O)CNC(=O)c1ccc2c(n1)N(C(=O)Nc1ccccn1)[C@H]1CCN2C1` (single isomer, unassigned) [Example 214], under setting [1], the Emax was over 150%. The “TRP Activity (EC1.5, concentration of test compound that results in 150% activation of SIRT1)” value under setting [2] is given as “B (EC1.5 1-25 μM)”.
Consider `C[C@@H](NC(=O)c1ccc2c(n1)N(C(=O)Nc1ncc3[nH]cnc3n1)[C@H]1CCN2C1)C(F)(F)F` [Example 166, (4S)—N5-(7H-purin-2-yl)-N7-((R)-1,1,1-trifluoropropan-2-yl)-3,4-dihydro-1,4-methanopyrido[2,3-b][1,4]diazepine-5,7(2H)-dicarboxamide], for which, under setting [1], the Emax is over 150%. Besides, the “TRP Activity (EC1.5, concentration of test compound that results in 150% activation of SIRT1)” value under setting [2] was “A (EC1.5<1 μM)”.
Taken in the same sequence, the figures for `C[C@@H](NC(=O)c1ccc2c(n1)N(C(=O)Nc1ncco1)[C@H]1CCN2C1)C(F)(F)F` [Example 75, (4S)—N5-(oxazol-2-yl)-N7-((R)-1,1,1-trifluoropropan-2-yl)-3,4-dihydro-1,4-methanopyrido[2,3-b][1,4]diazepine-5,7(2H)-dicarboxamide] were over 150% and “A (EC1.5<1 μM)”.
Taken in the same sequence, the figures for `O=C(NCc1nccs1)c1ccc2c(n1)N(C(=O)Nc1cc(OC[C@H](O)CO)ccn1)[C@H]1CCN2C1` [Example 195, (4S)—N5-(4-((R)-2,3-dihydroxypropoxy)pyridin-2-yl)-N7-(thiazol-2-ylmethyl)-3,4-dihydro-1,4-methanopyrido[2,3-b][1,4]diazepine-5,7(2H)-dicarboxamide] were over 150% and “B (EC1.5 1-25 μM)”.
In the case of `Cc1ccc2c(NC(=O)N3c4nc(C(=O)NCC(N)C(F)(F)F)ccc4N4CC[C@H]3C4)n[nH]c2n1` (single isomer, unassigned) [Example 197], the Emax under setting [1] is over 150%. Further, under setting [2], the “TRP Activity (EC1.5, concentration of test compound that results in 150% activation of SIRT1)” value is “B (EC1.5 1-25 μM)”.
The like results for `Cc1ccnc(NC(=O)N2c3nc(C(=O)NCC4CC4)ccc3N3CC[C@H]2C3)c1` [Example 110, (4S)—N7-(cyclopropylmethyl)-N5-(4-methylpyridin-2-yl)-3,4-dihydro-1,4-methanopyrido[2,3-b][1,4]diazepine-5,7(2H)-dicarboxamide] were, in that order, over 150% and “A (EC1.5<1 μM)”.
Consider `C[C@@H](NC(=O)c1ccc2c(n1)N(C(=O)Nc1cc(N3CCOC3=O)ccn1)[C@H]1CCN2C1)C(F)(F)F` [Example 165, (4S)—N5-(4-(2-oxooxazolidin-3-yl)pyridin-2-yl)-N7-((R)-1,1,1-trifluoropropan-2-yl)-3,4-dihydro-1,4-methanopyrido[2,3-b][1,4]diazepine-5,7(2H)-dicarboxamide], for which the Emax under setting [1] is over 150%. Under setting [2], the “TRP Activity (EC1.5, concentration of test compound that results in 150% activation of SIRT1)” value is given as “A (EC1.5<1 μM)”.
In the case of `C[C@@H](NC(=O)c1ccc2c(n1)N(C(=O)Nc1nccs1)[C@H]1CCN2C1)C(F)(F)F` [Example 191, (4S)—N5-(thiazol-2-yl)-N7-((R)-1,1,1-trifluoropropan-2-yl)-3,4-dihydro-1,4-methanopyrido[2,3-b][1,4]diazepine-5,7(2H)-dicarboxamide], under setting [1], the Emax is over 150%. The “TRP Activity (EC1.5, concentration of test compound that results in 150% activation of SIRT1)” value under setting [2] was “A (EC1.5<1 μM)”.
The like results for `O=C(N[C@H](CO)C(F)(F)F)c1ccc2c(n1)N(C(=O)Nc1ccccn1)[C@H]1CCN2C1` [Example 16, (4S)—N5-(pyridin-2-yl)-N7-((R)-1,1,1-trifluoro-3-hydroxypropan-2-yl)-3,4-dihydro-1,4-methanopyrido[2,3-b][1,4]diazepine-5,7(2H)-dicarboxamide] were, in that order, over 150% and “A (EC1.5<1 μM)”.
Taken in the same sequence, the figures for `C[C@@H](NC(=O)c1ccc2c(n1)N(C(=O)Nc1cccc(OC[C@H](O)CO)n1)[C@H]1CCN2C1)C(F)(F)F` [Example 141, (4S)—N5-(6-((R)-2,3-dihydroxypropoxy)pyridin-2-yl)-N7-((R)-1,1,1-trifluoropropan-2-yl)-3,4-dihydro-1,4-methanopyrido[2,3-b][1,4]diazepine-5,7(2H)-dicarboxamide] were over 150% and “A (EC1.5<1 μM)”.
Taken in the same sequence, the figures for `Cc1ncc(-c2cc(NC(=O)N3c4nc(C(=O)N[C@H](C)C(F)(F)F)ccc4N4CC[C@H]3C4)c(=O)n(C)c2)o1` [Example 319, (4S)—N5-(1-methyl-5-(2-methyloxazol-5-yl)-2-oxo-1,2-dihydropyridin-3-yl)-N7-((R)-1,1,1-trifluoropropan-2-yl)-3,4-dihydro-1,4-methanopyrido[2,3-b][1,4]diazepine-5,7(2H)-dicarboxamide] were under 150% and “A (EC1.5<1 μM)”.
`Cc1c[nH]c2nc(NC(=O)N3c4nc(C(=O)NCC(F)(F)F)ccc4N4CC[C@H]3C4)ncc12` [Example 176, (4S)—N5-(5-methyl-7H-pyrrolo[2,3-d]pyrimidin-2-yl)-N7-(2,2,2-trifluoroethyl)-3,4-dihydro-1,4-methanopyrido[2,3-b][1,4]diazepine-5,7(2H)-dicarboxamide]: the Emax was over 150%. Besides, the “TRP Activity (EC1.5, concentration of test compound that results in 150% activation of SIRT1)” value under setting [2] was “A (EC1.5<1 μM)”.
On to `C=CCNC(=O)c1ccc2c(n1)N(C(=O)Nc1ccccn1)[C@H]1CCN2C1` [Example 179, (4S)—N7-allyl-N5-(pyridin-2-yl)-3,4-dihydro-1,4-methanopyrido[2,3-b][1,4]diazepine-5,7(2H)-dicarboxamide], for which the Emax under setting [1] was over 150%. Moreover, under setting [2], the “TRP Activity (EC1.5, concentration of test compound that results in 150% activation of SIRT1)” value is given as “A (EC1.5<1 μM)”.
On to `Cc1ccc(NC(=O)N2c3nc(C(=O)NC4CC4)ccc3N3CC[C@H]2C3)nc1` [Example 215, (4S)—N7-cyclopropyl-N5-(5-methylpyridin-2-yl)-3,4-dihydro-1,4-methanopyrido[2,3-b][1,4]diazepine-5,7(2H)-dicarboxamide], for which the Emax under setting [1] was over 150%. For the same molecule, the “TRP Activity (EC1.5, concentration of test compound that results in 150% activation of SIRT1)” value under setting [2] is listed as “B (EC1.5 1-25 μM)”.
Taken in the same sequence, the figures for `O=C(NCC(F)(F)F)c1ccc2c(n1)N(C(=O)Nc1ccccn1)[C@H]1CCN2C1` [Example 1] were over 150% and “A (EC1.5<1 μM)”.
Take `O=C(NC1CCOC1)c1ccc2c(n1)N(C(=O)Nc1ccccn1)[C@H]1CCN2C1` (stereo partly drawn) [Example 6, (4S)—N-5-(pyridin-2-yl)-N-7-(tetrahydrofuran-3-yl)-3,4-dihydro-1,4-methano pyrido [2,3-b] [1, 4] diazepine-5, 7(2H)-dicarboxamide]: the Emax under setting [1] is over 150%. Further, the “TRP Activity (EC1.5, concentration of test compound that results in 150% activation of SIRT1)” value under setting [2] is “B (EC1.5 1-25 μM)”.
Taken in the same sequence, the figures for `O=C(NC1CC1(F)F)c1ccc2c(n1)N(C(=O)Nc1ccccn1)[C@H]1CCN2C1` (stereo partly drawn) [Example 20, (4S)—N7-(2,2-difluorocyclopropyl)-N5-(pyridin-2-yl)-3,4-dihydro-1,4-methanopyrido[2,3-b][1,4]diazepine-5,7(2H)-dicarboxamide] were over 150% and “A (EC1.5<1 μM)”.
For the molecule `O=C(N[C@H](CO)C(F)(F)F)c1ccc2c(n1)N(C(=O)Nc1cnccn1)[C@H]1CCN2C1` (single isomer, unassigned) [Example 119], under setting [1], the Emax was over 150%. Under setting [2], the “TRP Activity (EC1.5, concentration of test compound that results in 150% activation of SIRT1)” value was “A (EC1.5<1 μM)”.
The like results for `C[C@@H](NC(=O)c1ccc2c(n1)N(C(=O)Nc1ncc3[nH]ccc3n1)[C@H]1CCN2C1)C(F)(F)F` [Example 147, (4S)—N5-(5H-pyrrolo[3,2-d]pyrimidin-2-yl)-N7-((R)-1,1,1-trifluoropropan-2-yl)-3,4-dihydro-1,4-methanopyrido[2,3-b][1,4]diazepine-5,7(2H)-dicarboxamide] were, in that order, over 150% and “A (EC1.5<1 μM)”.
The like results for `O=C(N[C@H](CO)C(F)(F)F)c1ccc2c(n1)N(C(=O)Nc1cc(OC[C@H](O)CO)ccn1)[C@H]1CCN2C1` (single isomer, unassigned) [Example 92] were, in that order, over 150% and “A (EC1.5<1 μM)”.
The like results for `C[C@@H](NC(=O)c1ccc2c(n1)N(C(=O)Nc1ccon1)[C@H]1CCN2C1)C(F)(F)F` [Example 251, (4S)—N5-(isoxazol-3-yl)-N7-((R)-1,1,1-trifluoropropan-2-yl)-3,4-dihydro-1,4-methanopyrido[2,3-b][1,4]diazepine-5,7(2H)-dicarboxamide] were, in that order, over 150% and “B (EC1.5 1-25 μM)”.
